These results are taken from patent US11851440B2, “Modulators of eukaryotic initiation factor 2B, compositions and methods” (Denali Therapeutics Inc., priority 2017, dated 2023).

Structures are written as SMILES. pIC50: −log10 of the molar value.

What is called pIC50 is the negative decadic logarithm of the IC50, by convention in mol/L.

The subject of the first experiment is ISR pathway (ATF4 translation). As to the kind of experiment: ATF4 Nano Luciferase reporter integrated stress response (ISR) assay in H4 ATF4-NLuc cells. The following applies: Homo sapiens, H4 ATF4-NLuc (clone 17) cells; compound 30 minutes, then 50 um sodium arsenite for 6 hours; luminescence readout. In general terms: A reporter such as luciferase makes a cellular process visible.
`O=C(NC12CC(c3nnc([C@H]4C[C@@H](OC(F)(F)F)C4)o3)(C1)C2)c1ccc2cc(Cl)cnc2c1` [Example 167, 3-chloro-N-[1-[5-[3-cis-(trifluoromethoxy)cyclobutyl]-1,3,4-oxadiazol-2-yl]-3-bicyclo[1.1.1]pentanyl]quinoline-7-carboxamide] had a pIC50 of 7.36.
The same measure, in the same setting: as for `O=C(COc1ccc(Cl)c(F)c1)NC12CC(c3nnc([C@H]4C[C@@H](OC(F)F)C4)o3)(C1)C2` [Example 51], the figure is 7.86.

The experiment is the same for the next values; noted with them: Homo sapiens, read-out: Activity (IC50), H4 ATF4-NLuc (clone 17) cells; compound 30 minutes, then 50 um sodium arsenite for 6 hours; luminescence readout.
`O=C(NC12CC(c3nnc([C@H]4C[C@@H](OC(F)(F)F)C4)o3)(C1)C2)C1=NO[C@@H](c2ccccc2)C1` [Example 99, cis-(R)-5-phenyl-N-(3-(5-(3-(trifluoromethoxy)cyclobutyl)-1,3,4-oxadiazol-2-yl)bicyclo[1.1.1]pentan-1-yl)-4,5-dihydroisoxazole-3-carboxamide]: the pIC50 is less than 5.00.
On the same count and under the same terms, as for `O=C(NC12CC(c3nnc([C@H]4C[C@@H](OC(F)(F)F)C4)o3)(C1)C2)c1ccn(CCOC(F)(F)F)n1` [Example 225], the figure is more than 6.00; as for `O=C(COc1ccc(Cl)c(F)c1)NC12CC(c3nnc(CN4CC(F)(F)C4)o3)(C1)C2` [Example 129, 2-(4-chloro-3-fluoro-phenoxy)-N-[3-[5-[(3,3-difluoroazetidin-1-yl)methyl]-1,3,4-oxadiazol-2-yl]-1-bicyclo[1.1.1]pentanyl]acetamide], 5.00 to 6.00; as for `O=C(NC12CC(c3nnc([C@H]4C[C@@H](OC(F)(F)F)C4)o3)(C1)C2)c1cc2ccc(Cl)cc2nn1` [Example 183], more than 6.00.
For `O=C(CO[C@H]1C[C@@H](OC(F)(F)F)C1)NC12CC(c3nc(-c4ccc(Cl)c(F)c4)no3)(C1)C2` [Example 201], the pIC50 is more than 6.00.
Still for that read-out and setting: the value for `O=C(NC12CC(c3nnc([C@H]4C[C@@H](OC(F)(F)F)C4)o3)(C1)C2)N1CCc2cc(Cl)ccc2C1` [Example 268] was more than 6.00; that for `O=C(COc1ccc(Cl)c(CO)c1)NC12CC(c3nnc([C@H]4C[C@@H](OC(F)(F)F)C4)o3)(C1)C2` [Example 256] was more than 6.00.
Same read-out and setting: the value for `O=C(COC1CCC1)NC12CC(c3nnc(COc4ccc(Cl)c(F)c4)o3)(C1)C2` [Example 46] was more than 6.00; that for `O=C(COc1ccc(Cl)c(F)c1)NC12CC(c3cnn([C@H]4C[C@@H](OC(F)(F)F)C4)n3)(C1)C2` [Example 79, 2-(4-chloro-3-fluoro-phenoxy)-N-[3-[2-[3-cis-(trifluoromethoxy)cyclobutyl]triazol-4-yl]-1-bicyclo[1.1.1]pentanyl]acetamide] was more than 6.00; that for `O=C(COc1ccc(F)cc1)NC12CC(c3nnc([C@H]4C[C@@H](OC(F)(F)F)C4)o3)(C1)C2` [Example 71, 2-(4-fluorophenoxy)-N-[3-[5-[3-cis-(trifluoromethoxy)cyclobutyl]-1,3,4-oxadiazol-2-yl]-1-bicyclo[1.1.1]pentanyl]acetamide] was more than 6.00.
Same read-out and setting: as for `O=C(CO[C@H]1C[C@@H](OC(F)(F)F)C1)NC12CC(c3cc(-c4ccc(Cl)cc4F)no3)(C1)C2` [Example 252], the figure is more than 6.00; as for `O=C(CO[C@H]1C[C@@H](OC(F)(F)F)C1)NC12CC(c3nnc(COc4ccc(Cl)c(F)c4)o3)(C1)C2` [Example 41, N-[1-[5-[(4-chloro-3-fluoro-phenoxy)methyl]-1,3,4-oxadiazol-2-yl]-3-bicyclo[1.1.1]pentanyl]-2-cis-[3-(trifluoromethoxy)cyclobutoxy]acetamide], more than 6.00; as for `O=C(COc1ccc(Cl)c(F)c1)NC12CC(c3cc(C4CCC4)on3)(C1)C2` [Example 24, 2-(4-chloro-3-fluorophenoxy)-N-(3-(5-cyclobutylisoxazol-3-yl)bicyclo[1.1.1]pentan-1-yl)acetamide], more than 6.00.
In the case of `O=C(COc1ccc(F)c(F)c1)NC12CC(n3cnc([C@H]4C[C@@H](OC(F)(F)F)C4)c3)(C1)C2` [Example 143], the negative logarithm of the IC50 (pIC50) was more than 6.00.
Consider `O=C(CO[C@H]1C[C@@H](OC(F)(F)F)C1)NC12CC(c3ncc(-c4ccc(Cl)c(F)c4)o3)(C1)C2` [Example 227], for which the pIC50 was more than 6.00.
Take `O=C(COc1ccc(Cl)c(F)c1)NC12CC(n3cnc(C4CN(CC(F)(F)F)C4)c3)(C1)C2` [Example 67, 2-(4-chloro-3-fluoro-phenoxy)-N-[3-[4-[1-(2,2,2-trifluoroethyl)azetidin-3-yl]imidazol-1-yl]-1-bicyclo[1.1.1]pentanyl]acetamide]: the pIC50 was more than 6.00.
Same read-out and setting: as for `O=C(COCc1cncc(Cl)c1)NC12CC(c3nnc([C@H]4C[C@@H](OC(F)(F)F)C4)o3)(C1)C2` [Example 97, 2-[(5-chloro-3-pyridyl)methoxy]-N-[3-[5-[3-cis-(trifluoromethoxy)cyclobutyl]-1,3,4-oxadiazol-2-yl]-1-bicyclo[1.1.1]pentanyl]acetamide], the figure is 5.00 to 6.00; as for `N#Cc1cc(C(F)(F)F)ccc1-c1cn(C23CC(NC(=O)CO[C@H]4C[C@@H](OC(F)(F)F)C4)(C2)C3)cn1` [Example 255], more than 6.00.
The same measure, in the same setting: as for `O=C(NC12CC(n3cnc(-c4ccc(F)c(F)c4)c3)(C1)C2)[C@H]1C[C@@H](OCCOC(F)(F)F)C1` [Example 229], the figure is more than 6.00.
Still for that read-out and setting: as for `O=C(COc1ccc(F)cc1)NC12CC(c3nnc([C@H]4C[C@H](OC(F)(F)F)C4)o3)(C1)C2` [Example 72, 2-(4-fluorophenoxy)-N-[3-[5-[3-trans-(trifluoromethoxy)cyclobutyl]-1,3,4-oxadiazol-2-yl]-1-bicyclo[1.1.1]pentanyl]acetamide], the figure is more than 6.00; as for `O=C(NC12CC(c3nnc([C@H]4C[C@@H](OC(F)(F)F)C4)o3)(C1)C2)c1cc2cccn2cn1` [Example 101, N-[3-[5-[3-cis-(trifluoromethoxy)cyclobutyl]-1,3,4-oxadiazol-2-yl]-1-bicyclo[1.1.1]pentanyl]pyrrolo[1,2-c]pyrimidine-3-carboxamide], 5.00 to 6.00; as for `O=C(NC12CC(c3nnc(C4CC(OC(F)(F)F)C4)o3)(C1)C2)C(CO)Oc1ccc(Cl)cc1` (stereo not shown) [Example 232], more than 6.00.
For the compound `Cc1ccc(-c2cn(C34CC(NC(=O)CO[C@H]5C[C@@H](OC(F)(F)F)C5)(C3)C4)cn2)cc1F` [Example 140], the pIC50 is more than 6.00.
The same measure, in the same setting: as for `N#CC1CC(c2nnc(C34CC(NC(=O)COc5ccc(Cl)c(F)c5)(C3)C4)o2)C1` (stereo not shown) [Example 29, 2-(4-chloro-3-fluoro-phenoxy)-N-[1-[5-(3-cyanocyclobutyl)-1,3,4-oxadiazol-2-yl]-3-bicyclo[1.1.1]pentanyl]acetamide], the figure is more than 6.00.
On the same count and under the same terms, the value for `CC1C(c2nnc(C34CC(NC(=O)COc5ccc(Cl)c(F)c5)(C3)C4)o2)CN1C(=O)OC(C)(C)C` (stereo not shown) [Example 122, tert-butyl 3-[5-[3-[[2-(4-chloro-3-fluoro-phenoxy)acetyl]amino]-1-bicyclo[1.1.1]pentanyl]-1,3,4-oxadiazol-2-yl]-2-methyl-azetidine-1-carboxylate] was more than 6.00.
On the same count and under the same terms, the value for `O=C(COc1ccc(Cl)c(F)c1)NC12CC(c3nnc(C4(F)CC4)o3)(C1)C2` [Example 10, 2-(4-chloro-3-fluoro-phenoxy)-N-[1-[5-(1-fluorocyclopropyl)-1,3,4-oxadiazol-2-yl]-3-bicyclo[1.1.1]pentanyl]acetamide] was more than 6.00.
For `O=C(COc1ccc(Cl)c(F)c1)NC12CC(c3nnc(COC(F)(F)F)o3)(C1)C2` [Example 45, 2-(4-chloro-3-fluoro-phenoxy)-N-[1-[5-(trifluoromethoxymethyl)-1,3,4-oxadiazol-2-yl]-3-bicyclo[1.1.1]pentanyl]acetamide], the pIC50 is more than 6.00.
As to `O=C(NC12CC(c3nnc([C@H]4C[C@@H](OC(F)(F)F)C4)o3)(C1)C2)c1ccc2cc(Cl)cnc2c1` [Example 167, 3-chloro-N-[1-[5-[3-cis-(trifluoromethoxy)cyclobutyl]-1,3,4-oxadiazol-2-yl]-3-bicyclo[1.1.1]pentanyl]quinoline-7-carboxamide], the pIC50 was more than 6.00.
Same read-out and setting: the value for `O=C(NC12CC(c3nnc([C@H]4C[C@@H](OC(F)(F)F)C4)o3)(C1)C2)c1cn(CCOC(F)(F)F)cn1` [Example 277] was more than 6.00; that for `O=C(CO[C@H]1C[C@@H](OC(F)(F)F)C1)NC12CC(c3cn(-c4ccc(Cl)c(F)c4)cn3)(C1)C2` [Example 228] was more than 6.00.
On to `O=C(CO[C@H]1C[C@@H](OC(F)(F)F)C1)NC12CC(c3noc(-c4ccc(Cl)cc4)n3)(C1)C2` [Example 203], for which the pIC50 is more than 6.00.
On the same count and under the same terms, as for `O=C(COc1ccc(Cl)c(F)c1)NC12CC(c3nnc([C@H]4C[C@@H](OC(F)F)C4)o3)(C1)C2` [Example 51], the figure is more than 6.00; as for `O=C(NC12CC(c3nnc([C@H]4C[C@@H](OC(F)(F)F)C4)o3)(C1)C2)c1ccc(OC(F)(F)F)cn1` [Example 164], more than 6.00; as for `O=C(COc1ccc(Cl)cc1)NC12CC(N3CC(C4CCC4)CC3=O)(C1)C2` (stereo not shown) [Example 213], 5.00 to 6.00.
Still for that read-out and setting: the value for `N#C[C@H]1C[C@@H](n2cc(C34CC(NC(=O)COc5ccc(Cl)c(F)c5)(C3)C4)nn2)C1` (relative stereo) [Example 35, 2-(4-chloro-3-fluorophenoxy)-N-(3-(1-((cis)-3-cyanocyclobutyl)-1H-1,2,3-triazol-4-yl)bicyclo[1.1.1]pentan-1-yl)acetamide] was more than 6.00; that for `O=C(CO[C@H]1C[C@@H](OC(F)(F)F)C1)NC12CC(c3nnc([C@H]4C[C@@H](OC(F)(F)F)C4)o3)(C1)C2` [Example 50] was more than 6.00.

Still in this experiment, the particulars now being: read-out: Activity (IC50); H4 ATF4-NLuc (clone 17) cells; compound 30 minutes, then 50 um sodium arsenite for 6 hours; luminescence readout.
For the compound `C[C@H]1C[C@@H]1c1nnc(C23CC(NC(=O)COc4ccc(Cl)c(F)c4)(C2)C3)o1` (single isomer, unassigned) [Example 113, 2-(4-chloro-3-fluoro-phenoxy)-N-[1-[5-[2-methylcyclopropyl]-1,3,4-oxadiazol-2-yl]-3-bicyclo[1.1.1]pentanyl]acetamide], the pIC50 was more than 6.00.
Consider `O=C(COC1CC(OC(F)(F)F)C1)NC12CC(c3nnc(C4C[C@H]4COC(F)(F)F)o3)(C1)C2` (single isomer, unassigned) [Example 90, 2-[cis-3-(trifluoromethoxy)cyclobutoxy]-N-[3-[5-[cis-2-(trifluoromethoxymethyl)cyclopropyl]-1,3,4-oxadiazol-2-yl]-1-bicyclo[1.1.1]pentanyl]acetamide], for which the pIC50 is less than 5.00.
